Source: ChEMBL document CHEMBL5154827, “Discovery of S-217622, a Noncovalent Oral SARS-CoV-2 3CL Protease Inhibitor Clinical Candidate for Treating COVID-19” (J Med Chem, 2022)

Tests used:
[1] = Antiviral activity against HCoV-OC43 infected in MRC5 cells assessed as inhibition of viral cytopathic effect measured after 42 hrs by real-time PCR method; type: functional, cell-based, Human coronavirus OC43; details: Betacoronavirus 1, OC43, MRC5, 42 h
Chymotrypsin [2] = molecular target: T1, Chymotrypsin (Homo sapiens, UniProt Q99895+P17538+P40313+Q6GPI1); assay: Inhibition of human pancreas chymotrypsin using Suc-Ala-Ala-Pro-Phe-AMC as substrate preincubated for 15 mins incubated followed by addition of substrate measured after 60 mins by measuring amount of AMC formed by spectrofluorimetric method; type: protein assay
Chymotrypsin [3] = molecular target: T1, Chymotrypsin; assay: Inhibition of human pancreas chymotrypsin at 100 uM using Suc-Ala-Ala-Pro-Phe-AMC as substrate preincubated for 15 mins incubated followed by addition of substrate measured after 60 mins by measuring amount of AMC formed by spectrofluorimetric method; type: protein assay; details: time 75.0 min
[4] = molecular target: Human immunodeficiency virus type 1 protease (Human immunodeficiency virus 1) (UniProt Q72874); assay: Inhibition of HIV-1 protease at 100 uM
NIH3T3 = assay: Phototoxicity in BALB/c mouse 3T3 fibroblast incubated for 1 hr by measuring neutral-red extraction from cells; type: toxicity, cell-based; details: nih3t3, 1 h
[5] = Elimination half life in Sprague-Dawley rat at 0.5 micromol/mL/kg, iv measured for 3 to 360 mins by LC-MS/MS analysis; type: ADME, organism-based; details: in vivo, time 3-360 min, dose 0.5 µmol/kg, read-out: LambdaZ (converted)

Compound	EC50 [1] [nM]	IC50 (Chymotrypsin [2]) [µM]	inhibition (Chymotrypsin [3]) [%]	inhibition [4] [%]	Activity (NIH3T3)	half-life [5] [min]
Cn1cnc(Cn2c(=O)[nH]/c(=N\c3cc4cn(C)nc4cc3Cl)n(Cc3cc(F)c(F)cc3F)c2=O)n1	74	> 100	< 50	< 50	Non-Toxic	
CNC(=O)Cn1c(=O)[nH]/c(=N\c2ccc(OC(F)F)cc2C)n(Cc2cc(F)c(F)c(F)c2)c1=O						126
CNC(=O)Cn1c(=O)[nH]/c(=N\c2cc3cn(C)nc3cc2Cl)n(Cc2cc(F)c(F)c(F)c2)c1=O						78
